Laboratory results: patent publication US8940313B2, “Tyrosine-based prodrugs of antiviral agents” (priority 2010, dated 2015)
Several values for one entry are separate records, joined by “and”; a condition that tells them apart may be missing. Equal values may be shown once. Read-outs that look alike come from different tables or passages of the source.

Key:
[1] = Enzymatic stability: hydrolysis in rat intestinal homogenate, pH 6.5, 37° C., LC-MS; conditions: per diastereoisomer, st = stable; for half-life: rat, intestinal homogenate, pH 6.5, T1/2 Int. Hom.
[2] = Chemical stability: hydrolysis in 200 mM phosphate buffer, 37° C., LC-MS; conditions: per diastereoisomer, st = stable
vaccinia virus = assay: microbe, parasite or virus in culture; format: cell-based; conditions: read-out: IC50 Vaccinia
KB cells = assay: cells; format: cell-based; conditions: read-out: IC50 KB
cowpox virus = assay: microbe, parasite or virus in culture; format: cell-based; conditions: read-out: IC50 Cow Pox
[3] = tested on: human cytomegalovirus (HCMV); assay: microbe, parasite or virus in culture; format: cell-based
herpes simplex 1 (HSV-1) = assay: microbe, parasite or virus in culture; format: cell-based
HFF cells = assay: cells; format: cell-based, human; conditions: read-out: IC50 HFF
[4] = Oral bioavailability / transport study in mice, plasma LC-MS; conditions: oral AUC / intravenous AUC, dose-adjusted, total HPMPA-containing species in plasma
[5] = tested on: poxviruses (vaccinia and cowpox viruses); format: cell-based
[6] = pH 7.4, T1/2 Buffer pH 7.4, 200 mM phosphate buffer pH 7.4, 37° C.
[7] = Human alphaherpesvirus 1, read-out: IC50 HSV-1
[8] = Human betaherpesvirus 5, read-out: IC50 HCMV

Compound | T1/2 Int. Hom. [1] | IC50 (vaccinia virus; Orthopoxvirus vaccinia, HFF) | IC50 (HFF cells; Homo sapiens, HFF) | IC50 (KB cells; Homo sapiens, KB, 48 h) | IC50 (cowpox virus; Cowpox virus, HFF) | IC50 (herpes simplex 1 (HSV-1); [7]) | IC50 [3, 8] | also measured
COC(=O)[C@@H](N)Cc1ccc(OP2(=O)CO[C@@H](Cn3cnc4c(N)ncnc43)CO2)cc1 (single isomer, unassigned) [1a (S,R)] | – | – | – | – | – | – | – | half-life [1]: < 28 min
COC(=O)[C@@H](N)Cc1ccc(OP2(=O)CO[C@@H](Cn3cnc4c(N)ncnc43)CO2)cc1 (single isomer, unassigned) [1a (S,S)] | <28 min | – | – | – | – | – | – | –
COC(=O)[C@H](Cc1ccc(OP2(=O)CO[C@@H](Cn3cnc4c(N)ncnc43)CO2)cc1)NC(=O)[C@@H](N)C(C)C (single isomer, unassigned) [1f (S,R)] | – | – | – | – | – | – | – | half-life [1]: < 28 min
COC(=O)[C@H](Cc1ccc(OP2(=O)CO[C@@H](Cn3cnc4c(N)ncnc43)CO2)cc1)NC(=O)[C@@H](N)C(C)C (single isomer, unassigned) [1f (S,S)] | <28 min | – | – | – | – | – | – | half-life ([2]; pH 6.5, T1/2 Buffer pH 6.5, 200 mM phosphate buffer pH 6.5, 37° C.): 67 min
COC(=O)[C@@H](N)Cc1ccc(OP2(=O)CO[C@@H](Cn3ccc(N)nc3=O)CO2)cc1 (single isomer, unassigned) [2a (S,R)] | – | – | – | – | – | – | – | half-life [1]: < 30 min
COC(=O)[C@@H](N)Cc1ccc(OP2(=O)CO[C@@H](Cn3ccc(N)nc3=O)CO2)cc1 (single isomer, unassigned) [2a (S,S)] | <30 min | – | – | – | – | – | – | half-life [2, 6]: 19 min
COC(=O)[C@H](N)Cc1ccc(OP2(=O)CO[C@@H](Cn3ccc(N)nc3=O)CO2)cc1 (single isomer, unassigned) [2b (S,R)] | 210 min | – | – | – | – | – | – | –
COC(=O)[C@H](N)Cc1ccc(OP2(=O)CO[C@@H](Cn3ccc(N)nc3=O)CO2)cc1 (single isomer, unassigned) [2b (S,S)] | 72 min | – | – | – | – | – | – | half-life [2, 6]: 21 min
CC(C)CNC(=O)[C@@H](N)Cc1ccc(OP2(=O)COC(Cn3cnc4c(N)ncnc43)CO2)cc1 (single isomer, unassigned) [(S,R)-1e] | – | – | – | – | – | – | – | IC50 (vaccinia virus): 1 µM; IC50 (KB cells): > 100 µM; T1/2 Int. Hom. ([1]; listed as 1e (S,R)): 630 min; IC50 (cowpox virus): 2.5 µM; IC50 ([3]; read-out: IC50 HCMV): 0.55 µM
CC(C)CNC(=O)[C@@H](N)Cc1ccc(OP2(=O)COC(Cn3cnc4c(N)ncnc43)CO2)cc1 (single isomer, unassigned) [(S,S)-1e] | – | 1.5 µM | > 100 µM | > 100 µM | 2 µM | – | – | IC50 (herpes simplex 1 (HSV-1); read-out: IC50 HSV-1): 35 µM; T1/2 Int. Hom. ([1]; listed as 1e (S,S)): 114 min; IC50 ([3]; read-out: IC50 HCMV): 1.3 µM
CC(C)OC(=O)[C@@H](N)Cc1ccc(OP2(=O)CO[C@@H](Cn3ccc(N)nc3=O)CO2)cc1 (stereo partly drawn) [2c (S,R)] | <30 min | – | – | – | – | – | – | –
CC(C)OC(=O)[C@@H](N)Cc1ccc(OP2(=O)CO[C@@H](Cn3ccc(N)nc3=O)CO2)cc1 (stereo partly drawn) [2c (S,S)] | <30 min | – | – | – | – | – | – | –
CC(C)(C)NC(=O)[C@H](N)Cc1ccc(OP2(=O)CO[C@@H](Cn3ccc(N)nc3=O)CO2)cc1 (stereo partly drawn) [2d (S,R)] | 1732 min | – | – | – | – | – | – | –
CC(C)(C)NC(=O)[C@H](N)Cc1ccc(OP2(=O)CO[C@@H](Cn3ccc(N)nc3=O)CO2)cc1 (stereo partly drawn) [2d (S,S)] | 203 min | – | – | – | – | – | – | –
Nc1nc2c(ncn2COCCO)c(=O)[nH]1 [ACV, Acyclovir, reference compound] | – | – | – | – | – | 0.6 µM | – | IC50 (herpes simplex 1 (HSV-1); read-out: IC50 HSV-1): 0.7 µM
Nc1ncnc2c1ncn2C[C@@H](CO)OCP(=O)(O)O [Compound 1, (S)-9-(3hydroxy-2-phosphonyl-methoxypropyl)adenine, reference compound] | – | – | – | – | – | – | – | IC50 (herpes simplex 1 (HSV-1); read-out: IC50 HSV-1): 35 µM; IC50 (vaccinia virus): 2 µM; IC50 (KB cells): > 100 µM; total oral bioavailability [4]: 5%; IC50 (cowpox virus): 4 µM; IC50 ([3]; read-out: IC50 HCMV): 0.41 µM
COC(=O)[C@@H](N)Cc1ccc(OP2(=O)CO[C@@H](Cn3cnc4c(N)ncnc43)CO2)cc1 (stereo partly drawn) [Compound 1a, Methyl(2S)-2-amino-3-(4-{[(5S)-5-[(6-amino-9H-purin-9-yl)methyl]-2-oxo-1,4,2λ^5-dioxaphosphinan-2-yl]oxy}phenyl)propanoate] | – | 3 µM | > 100 µM | > 100 µM | 3.5 µM | 35 µM | 0.45 µM | –
CC(C)CNC(=O)[C@@H](N)Cc1ccc(OP2(=O)COC(Cn3cnc4c(N)ncnc43)CO2)cc1 (stereo partly drawn) [Compound 1e, (2S)-2-Amino-3-[4-({5-[(6-amino-9H-purin-9-yl)methyl]-2-oxo-1,4,2λ^5-dioxaphosphinan-2-yl}oxy)phenyl]-N-(2-methylpropyl)propanamide] | – | 4.5 µM | > 100 µM | > 100 µM | 7 µM | 50 µM | 0.3 µM | –
COC(=O)[C@H](Cc1ccc(OP2(=O)CO[C@@H](Cn3cnc4c(N)ncnc43)CO2)cc1)NC(=O)[C@@H](N)C(C)C (stereo partly drawn) [Compound 1f, Methyl(2S)-2-[(2S)-2-amino-3-methylbutanamido]-3-[4-({(5S)-5-[(6-amino-9H-purin-9-yl)methyl]-2-oxo-1,4,2λ^5-dioxaphosphinan-2-yl}oxy)phenyl]propanoate] | – | 4 µM | 100 µM | > 100 µM | 8 µM | 35 µM | 0.3 µM | –
Nc1ccn(C[C@@H](CO)OCP(=O)(O)O)c(=O)n1 [Compound 2, (S)-HPMPC, reference compound] | – | 20 µM | 100 µM | – | 30 µM | – | 0.28 µM | IC50 (vaccinia virus): 15 µM; IC50 (cowpox virus): 15 µM and 20 µM
COC(=O)[C@@H](N)Cc1ccc(OP2(=O)CO[C@@H](Cn3ccc(N)nc3=O)CO2)cc1 (stereo partly drawn) [Compound 2a, Methyl-(2S)-2-amino-3-(4-{[(5S)-5-[(4-amino-2-oxo-2H-pyrimidin-1-yl)-methyl]-2-oxo-1,4,2λ^5-dioxaphosphinan-2-yl]oxy}phenyl)propanoate] | – | 4 µM | > 100 µM | > 100 µM | 50 µM | 25 µM | 0.23 µM | –
COC(=O)[C@H](N)Cc1ccc(OP2(=O)CO[C@@H](Cn3ccc(N)nc3=O)CO2)cc1 (stereo partly drawn) [Compound 2b, Methyl(2R)-2-amino-3-(4-{[(5S)-5-[(4-amino-2-oxo-2H-pyrimidin-1-yl)-methyl]-2-oxo-1,4,2λ^5-dioxaphosphinan-2-yl]oxy}phenyl)propanoate] | – | 25 µM | > 100 µM | > 100 µM | 35 µM | 35 µM | 0.2 µM | –
CC(C)OC(=O)[C@@H](N)Cc1ccc(OP2(=O)CO[C@@H](Cn3ccc(N)nc3=O)CO2)cc1 (stereo partly drawn) [Compound 2c] | – | – | – | – | – | – | – | IC50 (herpes simplex 1 (HSV-1); read-out: IC50 HSV-1): 20 µM; IC50 (vaccinia virus): 30 µM; IC50 (HFF cells): > 100 µM; IC50 (KB cells): > 100 µM; IC50 (cowpox virus): 40 µM; IC50 ([3]; read-out: IC50 HCMV): 0.12 µM
CCC(C)[C@H](N)C(=O)N[C@@H](Cc1ccc(OP2(=O)CO[C@@H](Cn3ccc(N)nc3=O)CO2)cc1)C(=O)OC (stereo partly drawn) [Compound 2f, Methyl(2S)-3-[4-({(5S)-5-[(4-amino-2-oxo-1,2-dihydropyrimidin-1-yl)methyl]-2-oxo-1,4,2λ^5-dioxaphosphinan-2-yl}oxy)phenyl]-2-[(2S)-2-amino-3-ethylbutanamido]propanoate] | – | 20 µM | > 100 µM | > 100 µM | 30 µM | 15 µM | < 0.1 µM | –
Nc1ncnc2c1ncn2C[C@H]1COP(=O)(O)CO1 [Compound 6, cHPMPA, reference compound] | – | 1 µM | 100 µM | > 100 µM | 0.6 µM | 30 µM | 1.3 µM | –
CC(C)CNC(=O)[C@@H](N)Cc1ccc(OP(=O)(O)CO[C@H](CO)Cn2cnc3c(N)ncnc32)cc1 [Compound 8, 4-[(2S)-2-amino-2-[(2-methylpropyl)carbamoyl]ethyl]phenoxy({[(2S)-1-(6-amino-9H-purin-9-yl)-3-hydroxypropan-2-yl]oxy}methyl)phosphinic acid] | st | 0.5 µM | > 100 µM | > 100 µM | 3 µM | 45 µM | 0.29 µM | activity against all these viruses [5]: active
Nc1nc(O)c2ncn(COC(CO)CO)c2n1 [DHPG, ganciclovir, reference compound] | – | – | > 100 µM | – | – | – | 2.4 µM | –
